In PubChem BioAssay AID200 (DTP/NCI, 2004):
Values joined by “and” are separate entries in the source; they are usually repeats but may differ in a detail not shown here. Equal values may be shown once. Inconclusive results and toxic doses are left out.

Test system: B6C3F1 mice, B16 melanoma ip, median survival T/C
Assay: NCI In Vivo Anticancer Drug Screen. Data for tumor model B16 Melanoma (intraperitoneal) in B6C3F1 mice
Details: endpoint: median survival time, higher = longer survival
Summary of the method: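 Readout: survival or tumor size in treated mice relative to vehicle controls (T/C). Model uses transplantable tumors grown in mice.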

[1] = dose: 6.25 mg/kg/injection, schedule: Q01DX009 (ip), vehicle: saline
[2] = dose: 12.5 mg/kg/injection, schedule: Q01DX009 (ip), vehicle: saline
[3] = dose: 25.0 mg/kg/injection, schedule: Q01DX009 (ip), vehicle: saline
[4] = dose: 50.0 mg/kg/injection, schedule: Q01DX009 (ip), vehicle: saline
[5] = dose: 100.0 mg/kg/injection, schedule: Q01DX009 (ip), vehicle: saline
[6] = dose: 200.0 mg/kg/injection, schedule: Q01DX009 (ip), vehicle: saline
[7] = dose: 1.56 mg/kg/injection, schedule: Q01DX009 (ip), vehicle: saline with Tween-80
[8] = dose: 6.25 mg/kg/injection, schedule: Q01DX009 (ip), vehicle: saline with Tween-80
[9] = dose: 12.5 mg/kg/injection, schedule: Q01DX009 (ip), vehicle: saline with Tween-80
[10] = dose: 25.0 mg/kg/injection, schedule: Q01DX009 (ip), vehicle: saline with Tween-80
[11] = dose: 6.25 mg/kg/injection, schedule: Q01DX009 (ip), vehicle: Klucel (hydroxypropylcellulose) (HPC)
[12] = dose: 12.5 mg/kg/injection, schedule: Q01DX009 (ip), vehicle: Klucel (hydroxypropylcellulose) (HPC)
[13] = dose: 25.0 mg/kg/injection, schedule: Q01DX009 (ip), vehicle: Klucel (hydroxypropylcellulose) (HPC)
[14] = dose: 50.0 mg/kg/injection, schedule: Q01DX009 (ip), vehicle: Klucel (hydroxypropylcellulose) (HPC)
[15] = dose: 8.0 micrograms/kg/injection, schedule: Q01DX009 (ip), vehicle: distilled water + alcohol
[16] = dose: 16.0 micrograms/kg/injection, schedule: Q01DX009 (ip), vehicle: distilled water + alcohol
[17] = dose: 32.0 micrograms/kg/injection, schedule: Q01DX009 (ip), vehicle: distilled water + alcohol
[18] = dose: 3.12 mg/kg/injection, schedule: Q01DX009 (ip), vehicle: saline with Tween-80
[19] = dose: 50.0 mg/kg/injection, schedule: Q01DX009 (ip), vehicle: saline with Tween-80
[20] = dose: 100.0 mg/kg/injection, schedule: Q01DX009 (ip), vehicle: saline with Tween-80

## COC1C(/C=C/C(C)=O)OC2OC(C)(C)OC21 (stereo unspecified)
[1]
  T/C: 92 % of control and 94 % of control and 100 % of control
[2]
  T/C: 93 % of control and 97 % of control and 98 % of control
[3]
  T/C: 91 % of control and 96 % of control and 101 % of control
[4]
  T/C: 108 % of control and 87 % of control and 101 % of control
[5]
  T/C: 93 % of control and 103 % of control and 104 % of control
[6]
  T/C: 112 % of control

## Cn1c(=O)c2c(nc(CCCCc3nc4c(c(=O)n(C)c(=O)n4C)n3C)n2C)n(C)c1=O
dose: 0.78 mg/kg/injection, schedule: Q01DX009 (ip), vehicle: saline with Tween-80
  T/C: 91 % of control
[7]
  T/C: 109 % of control
dose: 3.13 mg/kg/injection, schedule: Q01DX009 (ip), vehicle: saline with Tween-80
  T/C: 93 % of control
[8]
  T/C: 93 % of control

## C/C(=N\NC(=S)N1CC2CCC(CC2)C1)c1nccs1
[8]
  T/C: 100 % of control
[9]
  T/C: 107 % of control
[10]
  T/C: 105 % of control

## CCN(C)N=Nc1ccc(C(N)=O)cc1
[11]
  T/C: 117 % of control and 95 % of control
[12]
  T/C: 104 % of control and 106 % of control
[13]
  T/C: 95 % of control and 101 % of control
[14]
  T/C: 110 % of control and 102 % of control

## O=C1C(CO)=C[C@@H](O)[C@H]2O[C@@H]12
dose: 3.12 mg/kg/injection, schedule: Q01DX009 (ip), vehicle: saline
  T/C: 88 % of control
[1]
  T/C: 98 % of control
[2]
  T/C: 100 % of control
[3]
  T/C: 96 % of control
[4]
  T/C: 106 % of control

## COc1nc(C(Cl)(Cl)Cl)c(Cl)c(OC)c1Cl
[13]
  T/C: 96 % of control
[14]
  T/C: 104 % of control

## COc1cc2cc(c1Cl)N1CC(=O)C(C)(O)C(=O)N(C)C(C)C(=O)OC(CC1=O)C1(C)OC1C(C)C1CC(O)(NC(=O)O1)C(OC)/C=C\C=C(\C)C2OC (stereo unspecified)
dose: 4.0 micrograms/kg/injection, schedule: Q01DX009 (ip), vehicle: distilled water + alcohol
  T/C: 109 % of control
[15]
  T/C: 93 % of control
[16]
  T/C: 111 % of control
[17]
  T/C: 95 % of control

## ClC1=C(Cl)C(Cl)=C(Cl)C1=Cc1ccccc1
[18]
  T/C: 112 % of control
[8]
  T/C: 98 % of control
[9]
  T/C: 106 % of control
[10]
  T/C: 101 % of control

## CC(C)(C[NH-])C[NH-].[Cl][Pt+2][Cl]
dose: 0.25 mg/kg/injection, schedule: Q01DX009 (ip), vehicle: water
  T/C: 111 % of control
dose: 0.5 mg/kg/injection, schedule: Q01DX009 (ip), vehicle: water
  T/C: 123 % of control
dose: 2.0 mg/kg/injection, schedule: Q01DX009 (ip), vehicle: water
  T/C: 175 % of control
dose: 2.0 mg/kg/injection, schedule: Q04DX003 (ip), vehicle: water
  T/C: 168 % of control
dose: 4.0 mg/kg/injection, schedule: Q04DX003 (ip), vehicle: water
  T/C: 200 % of control

## Cc1c2cc[n+](CCN3CCCCC3)cc2c(C)c2c1[nH]c1ccc(O)cc12
dose: 6.25 mg/kg/injection, schedule: Q01DX009 (ip), vehicle: suspension in saline
  T/C: 153 % of control
dose: 12.5 mg/kg/injection, schedule: Q01DX009 (ip), vehicle: suspension in saline
  T/C: 204 % of control
[3]
  T/C: 172 % of control and 189 % of control

## N=c1nc2n(cc1F)[C@@H]1O[C@H](CO)[C@@H](O)[C@@H]1O2
[13]
  T/C: 111 % of control
[3]
  T/C: 110 % of control
[14]
  T/C: 121 % of control
[4]
  T/C: 112 % of control
dose: 100.0 mg/kg/injection, schedule: Q01DX009 (ip), vehicle: Klucel (hydroxypropylcellulose) (HPC)
  T/C: 110 % of control
[5]
  T/C: 117 % of control and 97 % of control
dose: 200.0 mg/kg/injection, schedule: Q01DX009 (ip), vehicle: Klucel (hydroxypropylcellulose) (HPC)
  T/C: 104 % of control
[6]
  T/C: 124 % of control and 105 % of control
dose: 400.0 mg/kg/injection, schedule: Q01DX009 (ip), vehicle: Klucel (hydroxypropylcellulose) (HPC)
  T/C: 117 % of control
dose: 400.0 mg/kg/injection, schedule: Q01DX009 (ip), vehicle: saline
  T/C: 121 % of control

## CCCCCCCCCCCCO[P+](=O)OCCCCCCCCCCCC
[19]
  T/C: 94 % of control
[20]
  T/C: 96 % of control

## S=C1NCc2cncnc2N1
dose: 3.12 mg/kg/injection, schedule: Q01DX009 (ip), vehicle: Klucel (hydroxypropylcellulose) (HPC)
  T/C: 108 % of control
[11]
  T/C: 107 % of control
[12]
  T/C: 88 % of control and 102 % of control

## N=c1ccn2c(n1)OC1C(O)C(CO)OC12 (stereo unspecified)
dose: 18.75 mg/kg/injection, schedule: Q01DX009 (ip), vehicle: saline
  T/C: 100 % of control
dose: 37.5 mg/kg/injection, schedule: Q01DX009 (ip), vehicle: saline
  T/C: 118 % of control and 104 % of control
dose: 75.0 mg/kg/injection, schedule: Q01DX009 (ip), vehicle: saline
  T/C: 100 % of control and 106 % of control (2×)
dose: 150.0 mg/kg/injection, schedule: Q01DX009 (ip), vehicle: saline
  T/C: 114 % of control and 106 % of control (2×)
dose: 300.0 mg/kg/injection, schedule: Q01DX009 (ip), vehicle: saline
  T/C: 112 % of control and 121 % of control and 106 % of control

## C=CCNc1nc2c(s1)CCc1cc(OC)c(OC)cc1-2
[9]
  T/C: 103 % of control
[10]
  T/C: 116 % of control
[19]
  T/C: 107 % of control
[20]
  T/C: 100 % of control
dose: 200.0 mg/kg/injection, schedule: Q01DX009 (ip), vehicle: saline with Tween-80
  T/C: 103 % of control
dose: 400.0 mg/kg/injection, schedule: Q01DX009 (ip), vehicle: saline with Tween-80
  T/C: 103 % of control

## O=C(CCBr)NCCNC(=O)CCBr
dose: 43.7 mg/kg/injection, schedule: Q01DX009 (ip), vehicle: saline with Tween-80
  T/C: 96 % of control
dose: 87.5 mg/kg/injection, schedule: Q01DX009 (ip), vehicle: saline with Tween-80
  T/C: 100 % of control
dose: 175.0 mg/kg/injection, schedule: Q01DX009 (ip), vehicle: saline with Tween-80
  T/C: 98 % of control

## COc1ccc([C@@]23Oc4cc(OC)cc(OC)c4[C@]2(O)[C@H](O)[C@H](C(=O)N(C)C)[C@H]3c2ccccc2)cc1
dose: 0.25 mg/kg/injection, schedule: Q01DX009 (ip), vehicle: Klucel (hydroxypropylcellulose) (HPC)
  T/C: 97 % of control
dose: 0.5 mg/kg/injection, schedule: Q01DX009 (ip), vehicle: Klucel (hydroxypropylcellulose) (HPC)
  T/C: 119 % of control and 91 % of control and 106 % of control
dose: 1.0 mg/kg/injection, schedule: Q01DX009 (ip), vehicle: Klucel (hydroxypropylcellulose) (HPC)
  T/C: 112 % of control and 117 % of control
dose: 2.0 mg/kg/injection, schedule: Q01DX009 (ip), vehicle: Klucel (hydroxypropylcellulose) (HPC)
  T/C: 103 % of control and 104 % of control and 106 % of control

## CC(C)(C)OC(=O)NC(CC(=O)O)C(=O)O (stereo unspecified)
[4]
  T/C: 102 % of control
[5]
  T/C: 90 % of control
[6]
  T/C: 96 % of control

## CCCCCCCCSC1=C(Cl)C(=O)C(OC)=C(OC)C1=O
[7]
  T/C: 100 % of control
[18]
  T/C: 93 % of control
[8]
  T/C: 89 % of control

## c1cc2c(c(CC3CO3)c1CC1CO1)OCCOCCOCCOCCO2 (stereo unspecified)
dose: 6.25 mg/kg/injection, schedule: Q01DX009 (ip), vehicle: saline + alcohol
  T/C: 102 % of control
dose: 12.5 mg/kg/injection, schedule: Q01DX009 (ip), vehicle: saline + alcohol
  T/C: 112 % of control
dose: 25.0 mg/kg/injection, schedule: Q01DX009 (ip), vehicle: saline + Tween-80 + alcohol
  T/C: 113 % of control
dose: 25.0 mg/kg/injection, schedule: Q01DX009 (ip), vehicle: saline + alcohol
  T/C: 112 % of control
dose: 50.0 mg/kg/injection, schedule: Q01DX009 (ip), vehicle: saline + Tween-80 + alcohol
  T/C: 113 % of control
dose: 50.0 mg/kg/injection, schedule: Q01DX009 (ip), vehicle: saline + alcohol
  T/C: 119 % of control and 108 % of control
dose: 100.0 mg/kg/injection, schedule: Q01DX009 (ip), vehicle: saline + Tween-80 + alcohol
  T/C: 122 % of control
dose: 100.0 mg/kg/injection, schedule: Q01DX009 (ip), vehicle: saline + alcohol
  T/C: 113 % of control and 123 % of control
dose: 200.0 mg/kg/injection, schedule: Q01DX009 (ip), vehicle: saline + alcohol
  T/C: 109 % of control

## COc1cc2cc(c1Cl)N1CCC(C)(O)C(=O)NC(C)C(=O)OC(CC1=O)C1(C)OC1C(C)C1CC(O)(NC(=O)O1)C(OC)/C=C\C=C(\C)C2OC (stereo unspecified)
[15]
  T/C: 160 % of control
[16]
  T/C: 162 % of control
[17]
  T/C: 178 % of control
